According to patent publication US6369047B2, “Androgenic steroid compounds and a method of making and using the same” (Research Triangle Institute, priority 1997, dated 2002):

Legend:
Male Rats = assay: Long Term Androgenic Activity in Male Rats; format: in vivo, rat
[1] = molecular target: T1, androgen receptor from rat ventral prostate (Rattus norvegicus, UniProt P15207); assay: Androgen RBA: relative binding to androgen receptor; details: Dihydrotestosterone = 100
T1 construct: androgen receptor from rat ventral prostate; from tissue; host or cells: rat ventral prostate
T1 sequence (P15207 1-902): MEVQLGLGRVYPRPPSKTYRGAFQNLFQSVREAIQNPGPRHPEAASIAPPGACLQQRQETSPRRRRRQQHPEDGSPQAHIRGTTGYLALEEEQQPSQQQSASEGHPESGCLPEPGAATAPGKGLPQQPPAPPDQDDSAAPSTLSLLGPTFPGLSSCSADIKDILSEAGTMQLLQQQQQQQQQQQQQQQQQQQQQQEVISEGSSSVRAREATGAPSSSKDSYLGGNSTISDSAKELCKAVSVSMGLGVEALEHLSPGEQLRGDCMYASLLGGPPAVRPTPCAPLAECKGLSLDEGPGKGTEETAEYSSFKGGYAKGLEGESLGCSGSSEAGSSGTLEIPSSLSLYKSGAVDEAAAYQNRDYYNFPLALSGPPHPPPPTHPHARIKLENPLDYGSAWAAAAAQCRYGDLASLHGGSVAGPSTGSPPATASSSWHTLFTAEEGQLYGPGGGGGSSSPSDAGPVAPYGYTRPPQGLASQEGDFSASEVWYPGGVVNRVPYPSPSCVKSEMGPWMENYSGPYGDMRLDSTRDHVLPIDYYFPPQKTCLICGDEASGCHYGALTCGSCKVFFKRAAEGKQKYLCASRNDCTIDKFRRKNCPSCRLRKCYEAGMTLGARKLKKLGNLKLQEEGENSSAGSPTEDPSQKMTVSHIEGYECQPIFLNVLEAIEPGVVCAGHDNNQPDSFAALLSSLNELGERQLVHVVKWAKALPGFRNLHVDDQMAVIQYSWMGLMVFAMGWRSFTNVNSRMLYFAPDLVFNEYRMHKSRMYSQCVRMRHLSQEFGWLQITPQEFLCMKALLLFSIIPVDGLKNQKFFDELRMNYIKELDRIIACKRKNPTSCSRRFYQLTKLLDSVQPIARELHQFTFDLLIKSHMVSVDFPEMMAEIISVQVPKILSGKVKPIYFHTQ

[2] = test system: immature castrated male rats; assay: Androgenic Activity, subcutaneous administration to immature castrated male rats; format: in vivo, rat; details: for Androgenic Activity, Seminal Vesicles / Androgenic Activity, Ventral Prostate / Androgenic Activity, Levator Ani: subcutaneous, Testosterone = 100
Protocol: Androgenic Activity was also evaluated using subcutaneous administration to immature castrated male rats (Testosterone=100).

immature female rats = assay: Estrogenic Activity, subcutaneous administration to immature female rats; format: in vivo, rat; details: Estradiol = 100
Protocol: (§1) Additionally, Estrogen RBA was determined by relative binding (Estradiol=100) to estrogen receptor from immature female rat uterus, while Estrogenic Activity was determined by subcutaneous administration to immature female rats (Estradiol=100).

[3] = molecular target: T2, estrogen receptor from immature female rat uterus (Rattus norvegicus, UniProt P06211); assay: Estrogen RBA: relative binding to estrogen receptor; details: Estradiol = 100
T2 construct: estrogen receptor from immature female rat uterus; from tissue; host or cells: immature female rat uterus
T2 sequence (P06211 1-600): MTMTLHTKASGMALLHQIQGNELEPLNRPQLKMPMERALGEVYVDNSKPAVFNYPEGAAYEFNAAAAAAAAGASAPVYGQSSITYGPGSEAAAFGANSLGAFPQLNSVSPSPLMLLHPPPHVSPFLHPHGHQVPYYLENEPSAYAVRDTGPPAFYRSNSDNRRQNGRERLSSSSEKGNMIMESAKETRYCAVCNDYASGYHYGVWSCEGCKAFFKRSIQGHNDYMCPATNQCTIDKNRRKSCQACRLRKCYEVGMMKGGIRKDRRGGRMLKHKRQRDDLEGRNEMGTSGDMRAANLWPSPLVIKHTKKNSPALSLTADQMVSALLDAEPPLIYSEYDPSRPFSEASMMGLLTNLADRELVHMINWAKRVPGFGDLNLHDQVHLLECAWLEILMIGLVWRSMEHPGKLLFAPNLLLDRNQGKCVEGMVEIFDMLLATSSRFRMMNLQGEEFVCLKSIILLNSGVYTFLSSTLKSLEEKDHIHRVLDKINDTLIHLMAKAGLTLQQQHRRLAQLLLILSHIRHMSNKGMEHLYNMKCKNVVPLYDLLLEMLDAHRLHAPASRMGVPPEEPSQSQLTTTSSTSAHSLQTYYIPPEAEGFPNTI
Protocol: as §1

Structure (SMILES)	Final Body Weight (% change from control) (Male Rats; 0.6 mg, week 1 after dose)	Seminal Vesicle Weight (% change from control) (Male Rats; 0.6 mg, week 1 after dose)	Ventral Prostate Weight (% change from control) (Male Rats; 0.6 mg, week 1 after dose)	Final Body Weight (% change from control) (Male Rats; 0.6 mg, week 2 after dose)	Seminal Vesicle Weight (% change from control) (Male Rats; 0.6 mg, week 2 after dose)	Ventral Prostate Weight (% change from control) (Male Rats; 0.6 mg, week 2 after dose)	Final Body Weight (% change from control) (Male Rats; 0.6 mg, week 4 after dose)	Seminal Vesicle Weight (% change from control) (Male Rats; 0.6 mg, week 4 after dose)	Ventral Prostate Weight (% change from control) (Male Rats; 0.6 mg, week 4 after dose)	Final Body Weight (% change from control) (Male Rats; 0.6 mg, week 6 after dose)	Seminal Vesicle Weight (% change from control) (Male Rats; 0.6 mg, week 6 after dose)	Ventral Prostate Weight (% change from control) (Male Rats; 0.6 mg, week 6 after dose)	Final Body Weight (% change from control) (Male Rats; 0.6 mg, week 8 after dose)	Seminal Vesicle Weight (% change from control) (Male Rats; 0.6 mg, week 8 after dose)	Ventral Prostate Weight (% change from control) (Male Rats; 0.6 mg, week 8 after dose)	Final Body Weight (% change from control) (Male Rats; 0.6 mg, week 10 after dose)	Seminal Vesicle Weight (% change from control) (Male Rats; 0.6 mg, week 10 after dose)	Ventral Prostate Weight (% change from control) (Male Rats; 0.6 mg, week 10 after dose)	Androgenic Activity, Seminal Vesicles [2]	Androgenic Activity, Ventral Prostate [2]	further results
CCCCCCC(=O)O[C@H]1CC[C@H]2[C@@H]3CCC4=CC(=O)CC[C@]4(C)[C@H]3CC[C@]12C [Testosterone enanthate, reference compound]	0%	452%	409%	6%	318%	339%	−7%	281%	291%	0%	248%	405%	6%	187%	150%	0%	179%	130%			
C=C1C[C@]2(C)[C@@H](O)CC[C@H]2[C@H]2[C@H]1[C@H]1CCC(=O)C=C1C[C@H]2C [RTI 1471-034, 17β-Hydroxy-7α-methyl-11-methyleneestr-4-en-3-one]																			993	1519-2148	Androgen RBA [1]: 176
CCCCCCC(=O)O[C@H]1CC[C@H]2[C@H]3[C@H]([C@@H](C)C[C@]12C)[C@H]1CCC(=O)C=C1C[C@H]3C [RTI 147-029, 7α,11β-dimethyl-17β-heptanoyloxyestr-4-en-3-one]	15%	968%	628%	6%	1428%	778%	1%	1222%	1145%	0%	1777%	1810%	−16%	1044%	858%	1%	924%	749%			Final Body Weight (% change from control) (Male Rats; 0.3 mg, week 1 after dose): 9%; Seminal Vesicle Weight (% change from control) (Male Rats; 0.3 mg, week 1 after dose): 571%; Ventral Prostate Weight (% change from control) (Male Rats; 0.3 mg, week 1 after dose): 368%; Final Body Weight (% change from control) (Male Rats; 0.3 mg, week 2 after dose): 1%; Seminal Vesicle Weight (% change from control) (Male Rats; 0.3 mg, week 2 after dose): 580%; Ventral Prostate Weight (% change from control) (Male Rats; 0.3 mg, week 2 after dose): 582%; Final Body Weight (% change from control) (Male Rats; 0.3 mg, week 4 after dose): 3%; Seminal Vesicle Weight (% change from control) (Male Rats; 0.3 mg, week 4 after dose): 438%; Ventral Prostate Weight (% change from control) (Male Rats; 0.3 mg, week 4 after dose): 583%; Final Body Weight (% change from control) (Male Rats; 0.3 mg, week 6 after dose): −1%; Seminal Vesicle Weight (% change from control) (Male Rats; 0.3 mg, week 6 after dose): 603%; Ventral Prostate Weight (% change from control) (Male Rats; 0.3 mg, week 6 after dose): 649%; Final Body Weight (% change from control) (Male Rats; 0.3 mg, week 8 after dose): −10%; Seminal Vesicle Weight (% change from control) (Male Rats; 0.3 mg, week 8 after dose): 312%; Ventral Prostate Weight (% change from control) (Male Rats; 0.3 mg, week 8 after dose): 340%; Final Body Weight (% change from control) (Male Rats; 0.3 mg, week 10 after dose): −2%; Seminal Vesicle Weight (% change from control) (Male Rats; 0.3 mg, week 10 after dose): 426%; Ventral Prostate Weight (% change from control) (Male Rats; 0.3 mg, week 10 after dose): 562%; potency and duration of action as compared with testosterone enanthate (Male Rats; in words, refers to Table 2): greater potency and longer duration of action
C[C@@H]1CC2=CC(=O)CC[C@@H]2[C@H]2CC[C@]3(C)[C@@H](O)CC[C@H]3[C@@H]21 [RTI 1176-024, 7α-methyl-19-nortestosterone]																			790	609	Androgenic Activity, Levator Ani [2]: 2510
C[C@@H]1CC2=CC(=O)CC[C@@H]2[C@@H]2[C@@H]1[C@@H]1CC[C@H](O)[C@@]1(C)C[C@@H]2C [RTI 1176-012, 7α,11β-dimethyl-17β-hydroxyestr-4-en-3-one]																			1540	1480	Androgen RBA [1]: 194; acute androgenic activity as compared with 7α-methyl-19-nortesterone ([2]; in words, refers to Table 1): marked increase in acute androgenic activity; Androgenic Activity, Levator Ani [2]: 3800; Estrogenic Activity (immature female rats): 0.8; melting point: 149 to 151 °C; Estrogen RBA [3]: 0.6
C[C@@H]1C[C@H]2CC(=O)CC[C@@H]2[C@@H]2[C@@H]1[C@@H]1CC[C@H](O)[C@@]1(C)C[C@@H]2C [RTI 1471-032, 7α,11β-dimethyl-17β-hydroxy-5α-estran-3-one]																			377	742	Estrogenic Activity (immature female rats): 0.7
